From patent US20230210771A1, “COMPOSITIONS FOR THE DELIVERY OF THERAPEUTIC AGENTS AND METHODS OF USE AND MAKING THEREOF” (priority 2020, published 2023)

Test: Terpene concentration (HPLC, GC-FID)
Type: physicochemical
Conditions: terpene content of hemp distillate + alpha-pinene lipid nanoparticle formulation (Example 34), diluted to theoretical 12 mg/mL CBD
Description: A 5 Liter manufacturing batch was analyzed by high pressure liquid chromatography (HPLC) to measure Terpenes present in the sample.
When all ingredients were dissolved, the solvent was removed to form a dried composition. The resulting particle size and zeta potential were determined using a Malvern ZetaSizer and cannabinoid concentrations were determined by UPLC. Terpene concentrations were determined by GC-FID.

Row | SMILES | Measured Concentration (mg/g) of terpene | Measured Concentration (w/w %) of terpene
1 | C=C(C)[C@H]1CC=C(C)CC1 [delta-Limonene] | <LOQ | <LOQ
2 | C=C/C(C)=C\CC=C(C)C [z-Ocimene] | <LOQ | <LOQ
3 | C=C1CC/C=C(\C)CC[C@@H]2[C@@H]1CC2(C)C [Beta-Caryophyllene] | 0.026 mg/g | 0.003%
4 | C=CC(C)(O)CC/C=C(\C)CCC=C(C)C (stereo not drawn) [trans-Nerolidol] | <LOQ | <LOQ
5 | C=C1C2CCC(C2)C1(C)C (centres unmarked) [Camphene] | 0.046 mg/g | 0.005%
6 | C=C1CCC2CC1C2(C)C (stereo not drawn) [beta-Pinene] | 0.026 mg/g | 0.003%
7 | C=CC(=C)CCC=C(C)C [beta-Myrecene] | <LOQ | <LOQ
8 | CC1=CCC(=C(C)C)CC1 [Terpinolene] | <LOQ | <LOQ
9 | C=CC(C)(O)CCC=C(C)C (centres unmarked) [Linalool] | <LOQ | <LOQ
10 | CC(C)=CCC/C(C)=C/CO [Geraniol] | <LOQ | <LOQ
11 | CC(C)=CCC[C@](C)(O)[C@@H]1CC=C(C)CC1 [alpha-Bisabolol] | 0.062 mg/g | 0.006%
12 | C/C1=C\CC/C(C)=C/CC(C)(C)/C=C/C1 [Humulene] | <LOQ | <LOQ
13 | CC1=CCC2C(C1)C2(C)C (centres unmarked) [Carene] | <LOQ | <LOQ
14 | CC1=CCC(C(C)C)=CC1 [y-Terpinene] | <LOQ | <LOQ
15 | C=C(C)[C@@H]1CC[C@@H](C)C[C@H]1O [Isopulegol] | <LOQ | <LOQ
16 | CC12CCC(CC1)C(C)(C)O2 [Eucalyptol] | <LOQ | <LOQ
17 | C[C@H]1CC[C@@H](C(C)(C)O)CC2=C1CC[C@@H]2C [alpha-Guaiol] | 0.023 mg/g | 0.002%
18 | C=CC(C)(O)CC/C=C(/C)CCC=C(C)C (stereo not drawn) [cis-Nerolidol] | <LOQ | <LOQ
19 | C=C1CC[C@H]2O[C@]2(C)CC[C@@H]2[C@@H]1CC2(C)C [Caryophyllene Oxide] | <LOQ | <LOQ
20 | CC1=CCC2CC1C2(C)C (stereo not drawn) [alpha-Pinene] | 5.205 mg/g | 0.521%
21 | C=C/C(C)=C/CC=C(C)C [e-Ocimene] | <LOQ | <LOQ
22 | Cc1ccc(C(C)C)cc1 [p-Cymene] | <LOQ | <LOQ
